Values of other authors in patent US8367620B2, “Peptidic growth hormone secretagogues analog compounds and preparations thereof” (Centro de Ingenieria Genetica y Biotecnologia, priority 2006, dated 2013).
Where no end group is shown, it is not given here. [ ]: non-standard residue; d: D form. d2Nal = N[C@H](Cc1ccc2ccccc2c1)C(=O)O

Tested on: GH release
Details: McDowell 1995; compared to GHRP-6; cited from earlier work

Substance: [dK][d2Nal]AW[dF]EK-NH2
- fold increased activity in vitro: 10 fold
